These are literature values, as cited in paper PMC8198792, “Prediction of Anticancer Peptides with High Efficacy and Low Toxicity by Hybrid Model Based on 3D Structure of Peptides” (International Journal of Molecular Sciences, 2021).

Like-named read-outs stand apart in the source and are kept apart here.

The subject of the data set is cancer cell lines. Also noted: method as in 6 sources, ref CancerPPD [45] and SATPdb ||| ref CancerPPD/SATPdb ||| ref CancerPPD, SATPdb, Swissprot (PDB) ||| ref CancerPPD/SATPdb/Swissprot(PDB) ||| ref CancerPPD / SATPdb ||| ... The note with it: cited from earlier work. From the text:
Supplement ijms-22-05630-s001.zip/ACPs(seguence).xlsx, sheet "D1" | column: Activity || Supplement ijms-22-05630-s001.zip/ACPs(seguence).xlsx, sheet "D2" | column: Activity || Supplement ijms-22-05630-s001.zip/ACPs(seguence).xlsx, sheet "D3" | column: Activity || (+ 2 further places)

The mark [1] stands for this setting: ACPs dataset D1, 1 = ACP (positive), 0 = non-ACP (negative), label taken from databases, ref CancerPPD [45] and SATPdb.
Where [2] appears, read: ACPs dataset D4 (sheet "D4"), label 1 = ACP, experimentally validated ACPs, ref CancerPPD [45] and SATPdb.
The mark [3] stands for this setting: ACPs dataset D5 (sheet "D5"), label 1 = ACP (positive set), sequences with CancerPPD/SATPdb ID, ref CancerPPD, SATPdb.
[4] abbreviates: ACPs dataset sheet D2, 1 = ACP (CancerPPD/SATPdb ID), 0 = non-ACP (Swissprot/PDB ID), ref CancerPPD, SATPdb, Swissprot (PDB).
Setting [5] is: ACPs dataset D2 (supplement ACPs(seguence).xlsx, sheet D2), dataset label 1/0 (ACP / non-ACP), entries identified by Swissprot(PDB ID), ref CancerPPD/SATPdb/Swissprot(PDB).
Where [6] appears, read: ACPs dataset D5 (sheet "D5"), label 1 = ACP (positive set), 0 = non-ACP (negative set), ref CancerPPD [45] and SATPdb.
The mark [7] stands for this setting: ACPs dataset D4 (sheet "D4"), label 1 = ACP (CancerPPD ID), 0 = non-ACP (non-anticancer AMP, SATPdb ID), ref CancerPPD [45] and SATPdb.
Setting [8] is: ACPs dataset D3 (supplement sheet "D3"), 1 = ACP, 0 = non-ACP, ref CancerPPD [45] and SATPdb.
Where [9] appears, read: ACPs dataset D5, sheet "D5", label 1 = ACP, 0 = non-ACP, ref CancerPPD [45] and SATPdb.
[10] abbreviates: ACPs dataset D1, label 1 = ACP, 0 = non-ACP (non-anticancer AMPs from SATPdb), ref CancerPPD/SATPdb.
Setting [11] is: ACPs dataset D4 (sheet "D4"), label 1 = ACP, 0 = non-ACP, ref CancerPPD / SATPdb.
Setting [12] is: ACPs dataset D3 (sheet "D3"), label 1 = ACP, 0 = non-ACP, ref CancerPPD/SATPdb.

Turning to “GLLPCAESCVYIPCLTTVIGCSCKSKVCYKN [compound 4423]”, the Activity under setting [1] is recorded as 1, the Activity under setting [2] is on record as 1, the Activity under setting [3] is recorded as 1 and the Activity under setting [4] is 1.
For the substance “KLCGETCFKFKCYTPGCSCSYPFCK [compound 4395]”, the Activity is 1 under setting [1], 1 under setting [2], 1 under setting [3] and 1 under setting [4].
For “MLELLKSLVFAVIMVPVVMAIILGLIYGLGEVFNIFSGVGKKDQPGQNH [4C48 X-ray 3.30,C,1-49]”, the Activity runs as follows: under setting [5], 0; under setting [6], 0.
Consider ITMQGIQGQKIRMIMF [satpdb23309], for which the Activity reads like this: under setting [1], 1; under setting [2], 1; under setting [3], 1; under setting [4], 1.
With “GIFSKFGGKAIKNLFIKGAKNIGKEVGMDVIRTGIDVAGCKIKGEC [satpdb10976]”, the Activity is, setting by setting: under setting [1], 0; under setting [7], 0.
Regarding GLFDVIKAVASVIGGL [compound 4057], the Activity is listed as 1 under setting [8], 1 under setting [7] and 1 under setting [6].
With “KKWGWLAWVDPAYEFIKGFGKGAIKEGNKDKWKNI [2JPK NMR - A 1-35]”, the Activity is given as 0 under setting [5] and 0 under setting [6].
In the case of “KRGFGKKLRKRLKKFRNSIKKRLKNFNVVIPIPLPG [satpdb11105]”, the Activity by setting is: under setting [1], 0; under setting [7], 0.
Take KWKLFKKIPLKKF [compound 1122]: the Activity is 1 under setting [8], 1 under setting [7] and 1 under setting [6].
In the case of “MNQGKIWTVVNPAIGIPALLGSVTVIAILVHLAILSHTTWFPAYWQGGVKKAA [1KZU X-ray 2.50 A/D/G 1-53]”, the Activity by setting is: under setting [5], 0; under setting [9], 0.
Consider “GFLDTFKNLALNAAKSAGVSVLNSLSCKLFKTC [satpdb12796]”, for which the Activity is 0 under setting [10] and 0 under setting [11].
With TGASSEEEDPF [satpdb18128], the Activity was 1 under setting [1], 1 under setting [2], 1 under setting [3] and 1 under setting [4].
For the substance KWLRRVWRWWR [compound 1877], the Activity reads like this: under setting [8], 1; under setting [7], 1; under setting [6], 1.
With FKIPPIVKDTLKKFFKGGIAGVMGQ [satpdb10550], the Activity under setting [1] was 0 and the Activity under setting [7] was 0.
For “FFGWLIKGAIHAGKAIHGLIHRRRH [compound 4436]”, the Activity runs as follows: under setting [1], 1; under setting [2], 1; under setting [3], 1; under setting [4], 1.
Turning to KWFKKIPKFLHLLKKF [compound 1120], the Activity is 1 under setting [8], 1 under setting [7] and 1 under setting [6].
For “MKFYTIKLPK FLGGIVRAML GSFRKD [2MVH NMR - A 1-26]”, the Activity is 0 under setting [6] and 0 under setting [4].
For the substance DFKLFAVTIKYR [satpdb15826], the Activity is on record as 1 under setting [1], 1 under setting [2], 1 under setting [3] and 1 under setting [4].
As for ALWKTLLKKVLKA [satpdb11986], the Activity under setting [12] is reported as 0.
For KWKLFKKIGIGKFLHSAKKF [compound 1204], the Activity is 1 under setting [8], 1 under setting [7] and 1 under setting [6].
Take “GSIPCGESCVFIPCISSVIGCACKSKVCYKN [compound 4374]”: the Activity is recorded as 1 under setting [1], 1 under setting [2], 1 under setting [3] and 1 under setting [4].
For the substance GILGNIVGMGKQVVCGLSGLC [satpdb10178], the Activity is, setting by setting: under setting [1], 0; under setting [7], 0.
In the case of “MISDEQLNSLAITFGIVMMTLIVIYHAVDSTMSPKN [1RKL NMR - A 1-36]”, the Activity under setting [5] is listed as 0 and the Activity under setting [6] is on record as 0.
As for GKWMSLLKKILK [compound 3651], the Activity is, setting by setting: under setting [8], 1; under setting [7], 1; under setting [6], 1.
For the substance KKLFKKilkYL [satpdb14386], the Activity is recorded as 0 under setting [12], 0 under setting [11] and 0 under setting [9].
For RCTCTTIISSSSTF [satpdb11144], the Activity was 0 under setting [1] and 0 under setting [7].
Regarding GLFAVIKKVAKVIKKL [compound 4138], the Activity under setting [8] is 1, the Activity under setting [7] is on record as 1 and the Activity under setting [6] was 1.
Turning to ILGKIWKIKKLF [satpdb10262], the Activity reads like this: under setting [1], 0; under setting [7], 0.
On to KWKKLLKKPLKLLKKLL [satpdb14017], for which the Activity by setting is: under setting [12], 0; under setting [11], 0; under setting [9], 0.
“MDKVQYLTRSAIRRASTIEMPQQARQNLQNLFINFCLILICLLLICIIVMLL [4KYT X-ray 2.83 B/C 1-52]”: the Activity is, setting by setting: under setting [5], 0; under setting [9], 0.
For GLFDIIKKIAESF [compound 1252], the Activity under setting [8] is listed as 1, the Activity under setting [7] is on record as 1 and the Activity under setting [6] was 1.
In the case of FLPVIAGLAAKVLPKLFCAITKKC [satpdb12195], the Activity is given as 0 under setting [10] and 0 under setting [7].
As for “KTCENLSGTFKGPCIPDGNCNKHCRNNEHLLSGRCRDDFRCWCTNRC [6NOM NMR - A 1-47]”, the Activity is 0 under setting [5] and 0 under setting [6].
As to AIGKFLHSAKKFGKAFVGEIMNS [compound 1041], the Activity runs as follows: under setting [8], 1; under setting [2], 1; under setting [3], 1.
“ALLGDFFRKSKEKIGKEFKRIVQRIKDFLRNLVPRTES [satpdb12863]”: the Activity is, setting by setting: under setting [10], 0; under setting [11], 0.
Regarding “RICPRIWMEC KRDSDCMAQC ICVDGHCG [1F2S X-ray 1.79 I 1-28]”, the Activity under setting [6] is given as 0 and the Activity under setting [4] is given as 0.
On to “GPSQPTYPGDDAPVEDLIRFYNDLQQYLNVVTRHRY [1PPT X-ray 1.37 A 1-36]”, for which the Activity reads like this: under setting [5], 0; under setting [6], 0.
Take TLPFAYCNIHQVCHYAQRNDRSYWL [satpdb12859]: the Activity under setting [1] is listed as 1, the Activity under setting [2] is reported as 1, the Activity under setting [3] was 1 and the Activity under setting [4] is 1.
Consider “YRGGYTGPIPRPPPIGRPPLRLVVCACYRLS [satpdb12661]”, for which the Activity was 0 under setting [10] and 0 under setting [7].
Consider “GLFSKFNKKKIKSGLIKIIKTAGKEAGLEALRTGIDVIGCKIKGEC [satpdb11080]”, for which the Activity under setting [1] is 0 and the Activity under setting [7] was 0.
On to “HRHQGPIFDTRPSPFNPNQPRPGPIY [satpdb10283]”, for which the Activity is, setting by setting: under setting [1], 0; under setting [7], 0.
Consider “MAELQERIRHFWKESRRAFLVTKKPNWATYKRAAKITGLGIILIGLIGMLIRIVGILILGG [3MP7 X-ray 2.90 B 1-61]”, for which the Activity is, setting by setting: under setting [5], 0; under setting [9], 0.
Take KWKLFKKIGPGKFLHSAKKF [compound 1186]: the Activity is reported as 1 under setting [8], 1 under setting [7] and 1 under setting [6].
MLQNSAVLLLLVISASA [satpdb10067]: the Activity by setting is: under setting [1], 1; under setting [2], 1; under setting [3], 1; under setting [4], 1.
As for “CETWRTETTGATGQASSLLSGRLLEQKAASCHNSYIVLCIENSFMTSFSK [satpdb15843]”, the Activity is, setting by setting: under setting [1], 1; under setting [2], 1; under setting [3], 1; under setting [4], 1.
For GLLGLLGSVVSHVVPAIVGHF [compound 4416], the Activity by setting is: under setting [1], 1; under setting [2], 1; under setting [3], 1; under setting [4], 1.
As for NVWKKILGKIIKVVK [compound 4347], the Activity reads like this: under setting [8], 1; under setting [7], 1; under setting [6], 1.
In the case of “ITIPPIIKDTLKKFFKGGIAGVMGKSQ [satpdb11170]”, the Activity runs as follows: under setting [1], 0; under setting [7], 0.
